Turning to `Cc1cc(C)c(C2C(=O)N(N(C)C)C3(CCN(N(C)C)CC3)C2=O)c(C)c1` (centres unmarked) [Compound A1, 1,8-Bis-dimethylamino-3-(2,4,6-trimethyl-phenyl)-1,8-diaza-spiro[4.5]decane-2,4-dione], the melting point (commonly the temperature, or range, at which the solid turns liquid) was 80 to 85 °C.
The same measure for `CCOC(=O)OC1=C(c2c(C)cc(C)cc2C)C(=O)N(N(C)C)C12CCN(N(C)C)CC2` [Compound A2, Carbonic acid 1,8-bis-dimethylamino-2-oxo-3-(2,4,6-trimethyl-phenyl)-1,8-diaza-spiro[4.5]dec-3-en-4-yl ester ethyl ester]: 105 °C.

The values are drawn from patent US8541343B2, “Chemical compounds and their use as pesticides” (Syngenta Crop Protection, Inc., priority 2009, dated 2013).
